From paper PMC6407576, “Synthesis and evaluation of anticancer, antiphospholipases, antiproteases, and antimetabolic syndrome activities of some 3H-quinazolin-4-one derivatives” (Journal of Enzyme Inhibition and Medicinal Chemistry, 2019)

Legend:
[1] = target: Apis mellifera bee venom (AmPLA2) (Apis mellifera, UniProt P00630); test: biochemical
xanthine oxidase = xanthine oxidase (Homo sapiens, UniProt P47989); test: In vitro inhibition of xanthine oxidase; type: biochemical
Protocol: The xanthine oxidase inhibitory activities of the examined chemical compounds were determined by following the formation of uric acid from xanthine according to the reported method by Bondet and co-workers[46]. […] The results were expressed as IC50 determined from the curve.

[2] = target: T1, human group X (hG-X) sPLA2 (Homo sapiens, UniProt O15496); test: In vitro antiphospholipase activity; type: biochemical; details: 20 min preincubation, lecithin substrate, pH 7.6; for IC50: read-out: mean IC50 against hG-X (converted)
T1 sequence (O15496 43-165): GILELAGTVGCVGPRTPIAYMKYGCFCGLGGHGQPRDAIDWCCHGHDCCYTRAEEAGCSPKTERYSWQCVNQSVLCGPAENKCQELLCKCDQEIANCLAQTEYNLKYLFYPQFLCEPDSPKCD

collagenase = test: In vitro antiprotease activity; type: biochemical; details: 15 min preincubation
Protocol: (§1) The inhibitory effects of 21 3H-quinazolin-4-one derivatives on several available therapeutically important proteases such as cathepsin-B, collagenase, elastase, thrombin, and trypsin were investigated. […] The protease inhibitory activity was expressed as inhibition percentage, which was determined by comparison with a control experiment. The results were expressed as IC50 values that were determined from the standard curve. A protease inhibitor cocktail (Sigma) was used as the positive control.

elastase = test: In vitro antiprotease activity; type: biochemical; details: 15 min preincubation
Protocol: as §1

trypsin = target: T2, trypsin (Bos taurus, UniProt P00760); test: In vitro antiprotease activity; type: biochemical; details: 15 min preincubation; read-out: mean IC50 against Trypsin (converted)
T2 construct: gene PRSS1
T2 sequence (P00760 24-246): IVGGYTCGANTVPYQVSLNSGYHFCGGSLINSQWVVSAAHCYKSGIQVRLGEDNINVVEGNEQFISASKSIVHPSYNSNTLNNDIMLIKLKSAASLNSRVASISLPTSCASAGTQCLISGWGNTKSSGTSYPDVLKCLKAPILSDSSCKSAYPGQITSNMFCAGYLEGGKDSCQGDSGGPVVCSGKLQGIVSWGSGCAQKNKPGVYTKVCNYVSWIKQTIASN
Protocol: as §1

cathepsin-B = cathepsin-B (Homo sapiens, UniProt P07858); test: In vitro antiprotease activity; type: biochemical; details: 15 min preincubation; read-out: mean IC50 against Cathepsin-B (converted)
Protocol: as §1

thrombin = thrombin (Homo sapiens, UniProt P00734); test: In vitro antiprotease activity; type: biochemical; details: 15 min preincubation; read-out: mean IC50 against Thrombin (converted)
Protocol: as §1

[3] = target: Naja mossambica mossambica sPLA2 (NmPLA2); test: In vitro antiphospholipase activity; type: biochemical; details: 20 min preincubation, lecithin substrate, pH 7.6
[4] = target: T3, human group IIA (hG-IIA) sPLA2 (Homo sapiens, UniProt P14555); test: In vitro antiphospholipase activity; type: biochemical
T3 sequence (P14555 21-144): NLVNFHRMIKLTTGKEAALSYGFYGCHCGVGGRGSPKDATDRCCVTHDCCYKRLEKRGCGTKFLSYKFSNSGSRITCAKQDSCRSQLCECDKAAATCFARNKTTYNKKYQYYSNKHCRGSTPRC

[5] = target: T4, human group V (hG-V) sPLA2 (Homo sapiens, UniProt P39877); test: In vitro antiphospholipase activity; type: biochemical; details: 20 min preincubation, lecithin substrate, pH 7.6; for IC50: read-out: mean IC50 against hG-V (converted)
T4 sequence (P39877 21-138): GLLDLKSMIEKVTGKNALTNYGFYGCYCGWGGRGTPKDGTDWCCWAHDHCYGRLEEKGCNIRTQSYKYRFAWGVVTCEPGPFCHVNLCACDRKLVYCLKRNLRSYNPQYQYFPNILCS

Sequence of xanthine oxidase (P47989 whole entry, species assumed): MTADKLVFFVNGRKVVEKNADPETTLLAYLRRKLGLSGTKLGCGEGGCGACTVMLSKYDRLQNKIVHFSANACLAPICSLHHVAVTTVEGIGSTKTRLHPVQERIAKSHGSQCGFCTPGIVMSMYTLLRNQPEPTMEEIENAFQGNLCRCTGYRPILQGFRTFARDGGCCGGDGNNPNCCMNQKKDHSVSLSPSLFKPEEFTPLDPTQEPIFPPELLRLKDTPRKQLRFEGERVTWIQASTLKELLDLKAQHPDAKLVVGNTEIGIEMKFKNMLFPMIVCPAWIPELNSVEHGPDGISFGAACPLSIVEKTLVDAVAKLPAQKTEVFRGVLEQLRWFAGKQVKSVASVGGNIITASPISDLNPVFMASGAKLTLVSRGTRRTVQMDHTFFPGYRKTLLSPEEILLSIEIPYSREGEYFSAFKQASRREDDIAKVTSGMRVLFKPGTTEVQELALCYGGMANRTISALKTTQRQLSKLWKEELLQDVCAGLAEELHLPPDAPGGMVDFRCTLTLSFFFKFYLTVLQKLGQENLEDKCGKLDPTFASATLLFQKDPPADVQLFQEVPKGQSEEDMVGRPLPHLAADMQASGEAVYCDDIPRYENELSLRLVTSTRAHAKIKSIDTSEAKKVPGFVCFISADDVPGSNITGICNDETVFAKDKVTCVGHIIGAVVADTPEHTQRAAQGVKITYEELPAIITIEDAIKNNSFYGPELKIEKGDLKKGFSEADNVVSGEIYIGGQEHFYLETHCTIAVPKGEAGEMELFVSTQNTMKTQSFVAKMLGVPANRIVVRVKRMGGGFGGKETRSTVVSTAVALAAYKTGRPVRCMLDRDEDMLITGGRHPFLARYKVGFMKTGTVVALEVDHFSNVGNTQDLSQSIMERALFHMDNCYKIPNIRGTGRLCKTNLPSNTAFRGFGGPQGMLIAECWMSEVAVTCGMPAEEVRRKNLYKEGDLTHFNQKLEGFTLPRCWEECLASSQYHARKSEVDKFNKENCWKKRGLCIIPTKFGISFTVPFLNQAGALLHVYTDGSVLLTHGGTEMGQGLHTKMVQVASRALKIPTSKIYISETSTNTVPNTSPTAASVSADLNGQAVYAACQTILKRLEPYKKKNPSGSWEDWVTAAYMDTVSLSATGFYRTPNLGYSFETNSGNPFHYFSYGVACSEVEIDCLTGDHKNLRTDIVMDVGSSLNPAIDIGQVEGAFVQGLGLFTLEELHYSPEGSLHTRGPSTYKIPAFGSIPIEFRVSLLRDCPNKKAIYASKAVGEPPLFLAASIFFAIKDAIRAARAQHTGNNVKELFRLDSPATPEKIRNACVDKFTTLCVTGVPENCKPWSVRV
Sequence of Apis mellifera bee venom (AmPLA2) (P00630 34-167 limits assumed): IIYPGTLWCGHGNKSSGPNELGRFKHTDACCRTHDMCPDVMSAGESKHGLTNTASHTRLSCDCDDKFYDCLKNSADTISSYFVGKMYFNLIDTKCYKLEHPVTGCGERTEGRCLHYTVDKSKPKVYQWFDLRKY

SMILES	IC50 [1] [µM]	melting point [°C]	IC50 (xanthine oxidase) [µM]	IC50 [2] [µM]	mean IC50 against Collagenase (collagenase) [µg/mL]	mean IC50 against Elastase (elastase) [µg/mL]	IC50 (trypsin) [µM]	IC50 (cathepsin-B) [µM]	IC50 (thrombin) [µM]	mean IC50 against NmPLA2 [3] [µg/mL]	IC50 [4] [µM]	IC50 [5] [µM]	mean IC50 against hG-X [2] [µg/mL]	mean IC50 against hG-V [5] [µg/mL]
COc1cc(-n2c(C)nc3ccc(Cl)cc3c2=O)cc(OC)c1OC [Compound 5c, 6 -Chloro-2-methyl-3–(3,4,5-trimethoxy-phenyl)-3H-quinazolin-4-one]	12.6	188 to 190	36	26.3	21.50 ± 2.12	1.75 ± 0.05	6.24	34.6	6.93	5.15 ± 0.92	57.5	38.1	–	–
Cc1nc2ccc(Br)cc2c(=O)n1/N=C/c1ccc2ccccc2c1 [Compound 8b, (E)-6-Bromo-2-methyl-3-[(naphthalen-2-ylmethylene)-amino]-3H-quinazolin-4-one]	18.5	–	25.5	33.1	4.25 ± 1.06	21.50 ± 2.12	65	54.8	42.1	16.25 ± 1.06	42.3	54.8	–	–
Cc1nc2ccccc2c(=O)n1/N=C/c1ccc(-c2ccccn2)cc1 [Compound 8c, (E)-2-Methyl-3-[(4-pyridin-2-yl-benzylidene)-amino]-3H-quinazolin-4-one]	16.5	188 to 190	11.8	69.8	23.50 ± 0.71	32.00 ± 2.83	103	36.7	69	7.60 ± 0.85	22.2	30.8	–	–
Cc1nc2ccc(Br)cc2c(=O)n1/N=C/c1ccc(-c2ccccn2)cc1 [Compound 8d, (E)-6-Bromo-2-methyl-3-[(4-pyridin-2-yl-benzylidene)-amino]-3H-quinazolin-4-one]	10.5	209 to 210	23.9	15.7	3.00 ± 0.01	26.00 ± 1.41	54.9	82.3	37	6.55 ± 0.78	13.7	22.3	–	–
COc1cccc(/C=N/n2c(C)nc3ccccc3c2=O)c1[N+](=O)[O-] [Compound 8e, (E)-3-[(3-Methoxy-2-nitro-benzylidene)-amino]-2-methyl-3H-quinazolin-4-one]	22.5	178 to 180	102	34.7	15.50 ± 2.12	1.25 ± 0.05	2.51	6.95	4.43	7.75 ± 0.35	49.1	70.2	–	–
Cc1nc2ccccc2c(=O)n1/N=C/c1ccc(C#N)cc1 [Compound 8g, (E)-4-[(2-Methyl-4-oxo-4H-quinazolin-3-ylimino)-methyl]-benzonitrile]	46.8	222 to 224	257	79.8	17.25 ± 1.77	11.00 ± 0.41	46.8	25.1	48.6	12.75 ± 1.06	95.4	117	–	–
Cc1nc2ccc(Br)cc2c(=O)n1/N=C/c1ccc(C#N)cc1 [Compound 8h, (E)-4-[(6-Bromo-2-methyl-4-oxo-4H-quinazolin-3-ylimino)-methyl]-benzonitrile]	79	228 to 230	154	112	14.50 ± 2.12	27.50 ± 2.12	91.2	10.9	66.7	22.90 ± 1.27	120	92.6	–	–
Cc1nc2ccccc2c(=O)n1/N=C/c1ccc(-c2ccccc2)cc1 [Compound 8i]	27.7	–	25	50.1	15.25 ± 1.06	13.50 ± 2.12	36.8	10.3	51.6	11.00 ± 1.41	45.4	67.8	–	–
Cc1nc2ccccc2c(=O)n1NC(=O)OCC(C)C [Compound 10, (2-methyl-4-oxo-4H-quinazolin-3-yl)-carbamic acid isobutyl ester]	16.3	168 to 170	109	34.5	28.00 ± 1.41	1.45 ± 0.21	4	81.7	8.54	13.45 ± 0.78	56.3	62.7	–	–
Cc1nc2ccccc2c(=O)n1/N=C/N(C)C [Compound 12, (E)-N,N-dimethyl-N′-(2-methyl-4-oxo-4H-quinazolin-3-yl)-formamidine]	122	100 to 102	91.2	141	35.50 ± 2.12	8.50 ± 2.12	56.5	119	23.9	35.00 ± 2.83	200	150	–	–
Cc1cccc(NC(=O)CSc2nc3ccccc3c(=O)n2-c2ccccc2)c1C [Compound 15e]	21.1	–	98.7	17.4	4.50 ± 0.71	31.50 ± 2.12	81.8	3.85	57.8	11.00 ± 1.41	34.9	32.2	–	–
Cc1ccc2nc(SCC(=O)Nc3cccc(C)c3C)n(-c3ccccc3)c(=O)c2c1 [Compound 15f, N-(2,3-Dimethyl-phenyl)-2-(6-methyl-4-oxo-3-phenyl-3,4-dihydro-quinazolin-2-ylsulfanyl) -acetamide]	86.7	218 to 220	136	51.2	10.50 ± 2.12	16.00 ± 1.41	39.6	9.31	40.7	33.00 ± 2.83	90.8	70.1	–	–
CC1(C)CC[C@]2(C(=O)O)CC[C@]3(C)C(=CC[C@@H]4[C@@]5(C)CC[C@H](O)C(C)(C)[C@@H]5CC[C@]43C)[C@@H]2C1 [Oleanolic acid, reference compound]	9.2	–	–	–	–	–	–	–	–	4.90 ± 0.42	–	–	7.55 ± 0.64	7.50 ± 0.71
